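In this assay, cells in 96-well plates receive the compound at five concentrations for 48 hours. Endpoints are linearly interpolated between the surrounding concentrations. TGI: concentration producing complete growth inhibition.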
Tests used:
Assay in all cases: NCI anticancer screen, dose series, 48 h
[1] = system: DMS 114 small cell lung
[2] = system: NCI-H522 lung
[3] = system: SK-MEL-5 melanoma
[4] = system: NCI-H23 lung
[5] = system: SK-MEL-2 melanoma
[6] = system: OVCAR-4 ovarian
[7] = system: LOX IMVI melanoma
[8] = system: DLD-1 colon
[9] = system: CCRF-CEM leukemia
[10] = system: HOP-92 NSCLC
[11] = system: OVCAR-3 ovarian
[12] = system: RXF 393 renal
[13] = system: COLO 205 colon
[14] = system: SNB-19 CNS
[15] = system: SK-OV-3 ovarian
[16] = system: SNB-75 CNS
[17] = system: EKVX NSCLC
[18] = system: HT29 colon
[19] = system: UACC-62 melanoma
[20] = system: SK-MEL-28 melanoma

Cc1cc(N=Nc2ccc(N=Nc3c(O)c(S(=O)(=O)O)cc4cc(S(=O)(=O)O)ccc34)cc2C)ccc1N=Nc1ccc2cc(S(=O)(=O)O)cc(S(=O)(=O)O)c2c1
TGI [1]: > 100 µM
TGI [2]: > 100 µM
TGI [3]: > 100 µM
TGI [4]: > 100 µM
TGI [5]: > 100 µM
TGI [6]: > 100 µM
TGI [7]: > 100 µM
TGI [8]: > 100 µM
TGI [9]: > 100 µM
TGI [10]: > 100 µM
TGI [11]: > 100 µM
TGI [12]: > 100 µM
TGI [13]: > 100 µM
TGI [14]: > 100 µM
TGI [15]: > 100 µM
TGI [16]: > 100 µM
TGI [17]: > 100 µM
TGI [18]: > 31.6 µM
TGI [19]: > 100 µM
TGI [20]: > 100 µM

CC1OC(OC2CC(O)(C(=O)CO)Cc3c(O)c4c(c(O)c32)C(=O)c2ccccc2C4=O)CC(N)C1O (stereo not drawn)
TGI [1]: 0.0412 µM
TGI [2]: 0.1 µM
TGI [3]: 0.0523 µM
TGI [4]: 0.203 µM
TGI [6]: 3.15 µM
TGI [7]: 0.029 µM
TGI [10]: 1.04 µM
TGI [11]: 1.32 µM
TGI [12]: 0.152 µM
TGI [13]: 0.139 µM
TGI [14]: 0.239 µM
TGI [15]: 0.142 µM
TGI [16]: 0.107 µM
TGI [17]: 1.82 µM
TGI [18]: 0.493 µM
TGI [19]: 0.109 µM
TGI [20]: 0.368 µM

COc1cc2c(cc1OC)C(Cc1c3ccccc3cc3ccccc13)N(C)CC2 (stereo not drawn)
TGI [2]: 60 µM
TGI [3]: 35.3 µM
TGI [4]: > 85.3 µM
TGI [5]: 32.6 µM
TGI [6]: > 100 µM
TGI [7]: 41.2 µM
TGI [8]: > 100 µM
TGI [9]: 93 µM
TGI [10]: 35 µM
TGI [11]: > 61.1 µM
TGI [12]: 32.5 µM
TGI [13]: 29.7 µM
TGI [14]: 52.4 µM
TGI [15]: 84.5 µM
TGI [16]: 37.2 µM
TGI [17]: 96.8 µM
TGI [18]: 31 µM
TGI [19]: 40.8 µM
TGI [20]: 46.8 µM

CCOC(=O)NC(=O)c1cn(CCSCCOC(=O)NCCCCCCNC(=O)OCCSCCn2cc(C(=O)NC(=O)OCC)c(=O)[nH]c2=O)c(=O)[nH]c1=O
TGI [1]: > 100 µM
TGI [3]: > 100 µM
TGI [4]: > 100 µM
TGI [6]: > 100 µM
TGI [7]: > 100 µM
TGI [8]: > 100 µM
TGI [9]: > 100 µM
TGI [10]: > 100 µM
TGI [11]: > 100 µM
TGI [12]: > 100 µM
TGI [13]: > 100 µM
TGI [14]: > 100 µM
TGI [15]: > 100 µM
TGI [16]: > 100 µM
TGI [17]: > 100 µM
TGI [18]: > 100 µM
TGI [19]: > 100 µM
TGI [20]: > 100 µM

O=C(O)CNS(=O)(=O)c1ccc(NC(=O)Nc2ccccc2)cc1
TGI [1]: > 100 µM
TGI [2]: > 100 µM
TGI [3]: > 100 µM
TGI [4]: > 100 µM
TGI [5]: > 100 µM
TGI [6]: > 100 µM
TGI [7]: > 100 µM
TGI [8]: > 100 µM
TGI [9]: > 100 µM
TGI [10]: > 100 µM
TGI [11]: > 100 µM
TGI [12]: > 100 µM
TGI [13]: > 100 µM
TGI [14]: > 100 µM
TGI [15]: > 100 µM
TGI [16]: > 100 µM
TGI [17]: > 100 µM
TGI [18]: > 100 µM
TGI [19]: > 52.9 µM
TGI [20]: > 100 µM

COC(=O)NN1C(=O)C(=P(c2ccccc2)(c2ccccc2)c2ccccc2)C(C(=O)OC)=C1C
TGI [1]: > 100 µM
TGI [2]: > 100 µM
TGI [3]: > 100 µM
TGI [4]: > 100 µM
TGI [5]: > 100 µM
TGI [7]: > 100 µM
TGI [9]: > 100 µM
TGI [10]: 79.5 µM
TGI [11]: > 100 µM
TGI [13]: > 100 µM
TGI [14]: > 100 µM
TGI [15]: > 100 µM
TGI [16]: > 100 µM
TGI [17]: > 100 µM
TGI [18]: > 100 µM
TGI [19]: > 100 µM
TGI [20]: > 100 µM

Cn1c(=O)c2nc(N3CCCCC3)cnc2n(C)c1=O
TGI [2]: > 100 µM
TGI [3]: > 100 µM
TGI [4]: > 100 µM
TGI [6]: > 100 µM
TGI [8]: > 100 µM
TGI [9]: > 100 µM
TGI [10]: > 100 µM
TGI [11]: > 100 µM
TGI [13]: > 100 µM
TGI [14]: > 100 µM
TGI [15]: > 100 µM
TGI [16]: > 100 µM
TGI [17]: > 100 µM
TGI [18]: > 100 µM
TGI [19]: > 100 µM
TGI [20]: > 100 µM

CC1=C2C(O)C(C(C)C(=O)NC(C)C)CCC2(C)C=CC1=O (stereo not drawn)
TGI [1]: > 100 µM
TGI [2]: > 100 µM
TGI [3]: > 100 µM
TGI [4]: > 100 µM
TGI [5]: > 100 µM
TGI [6]: > 100 µM
TGI [7]: > 100 µM
TGI [8]: > 100 µM
TGI [9]: > 100 µM
TGI [10]: > 100 µM
TGI [11]: > 100 µM
TGI [12]: > 100 µM
TGI [13]: > 100 µM
TGI [14]: > 100 µM
TGI [15]: > 100 µM
TGI [16]: > 100 µM
TGI [17]: > 100 µM
TGI [18]: > 100 µM
TGI [19]: > 100 µM
TGI [20]: > 100 µM

CC(C)(O)[C@H](CCO)O[Si](c1ccccc1)(c1ccccc1)C(C)(C)C
TGI [2]: 20.1 µM
TGI [3]: 27.2 µM
TGI [5]: 28.4 µM
TGI [7]: 27.6 µM
TGI [8]: 21 µM
TGI [9]: 32.2 µM
TGI [10]: 23.5 µM
TGI [11]: 23.9 µM
TGI [13]: 29.6 µM
TGI [14]: 19.5 µM
TGI [15]: 24.5 µM
TGI [16]: 22.9 µM
TGI [17]: 29.6 µM
TGI [18]: 24.6 µM
TGI [19]: 24.1 µM
TGI [20]: 29 µM

CCNCCCCNCC
TGI [1]: > 3750 µM
TGI [2]: > 3750 µM
TGI [3]: > 3750 µM
TGI [4]: > 3750 µM
TGI [5]: > 3750 µM
TGI [6]: > 3750 µM
TGI [7]: > 3750 µM
TGI [8]: > 3750 µM
TGI [9]: > 3750 µM
TGI [10]: > 3750 µM
TGI [11]: > 3750 µM
TGI [12]: > 3750 µM
TGI [13]: > 3750 µM
TGI [14]: > 3750 µM
TGI [15]: > 3750 µM
TGI [16]: > 3750 µM
TGI [17]: > 3750 µM
TGI [18]: > 3750 µM
TGI [19]: > 3750 µM
TGI [20]: > 3750 µM
